The subject of data set [1] is patients (age 6 through 18 years) with DCP with predominant choreiform movement disorder.
For data set [2], the system named is pediatric patients diagnosed with DCP, predominant motor symptoms dystonic. Nature of the data set: Example 4: Phase 3 efficacy study, predominantly dystonic DCP. The data set is classed as in vivo, human. On the procedure: (§1) A Phase 3 study to evaluate the efficacy and safety of deutetrabenazine is performed on a population consisting of male and female patients, diagnosed with DCP. Patients may be included in the study only if they meet all of the following criteria: • 1. Patient is 6 through 18 years of age (inclusive) at baseline. • 2. Patient has had cerebral palsy (CP) symptoms since infancy (≤2 years). • 3. Patient has a diagnosis of DCP according to the Surveillance of Cerebral Palsy in Europe criteria. • 4. Patient has a total score of ≥10 on the MD-CRS part II items at the baseline visit, based on investigator scoring of chorea. • 5. Patient's symptoms are causing functional problems determined by a Clinical Global
Impression of Severity (CGI-S) score of 4 or greater based on investigator scoring. • 6. Patient's predominant motor symptoms are dystonic.
(§2) Patients will receive 6 mg to 48 mg of deutetrabenazine. The titration scheme and maximum dose follows the one in the parent study, Example 1, supra.

The conditions of data set [3]: relative to tetrabenazine; U.S. Pat. No. 8,524,733; cited from earlier work.
Data set [4] has as its system children and adolescents with dyskinesia in cerebral palsy.
Data set [5] relates to adult patients diagnosed with DCP, choreiform predominant. Nature of the data set: Example 3: Phase 3 efficacy study in adults. The data set is classed as in vivo, human. As to the method: as §1, with “older than” for “6 through”, “age” for “age (inclusive)”
Impression of Severity (CGI-S) score of 4 or greater based on investigator scoring. • 6. Choreiform is the predominant movement disorder as assessed by the EAB at screening.
as §2

A further data set has as its system patients with CP. To be noted: cited from earlier work.
The mark [6] stands for this setting: versus placebo, from baseline to week 15.

Results on 2 compounds are retold here after patent US11324732B2, “Methods for the treatment of dyskinesia in cerebral palsy” (AUSPEX PHARMACEUTICALS, INC., priority 2018, dated 2022).

`[2H]C([2H])([2H])Oc1cc2c(cc1OC([2H])([2H])[2H])[C@H]1CC(=O)[C@H](CC(C)C)CN1CC2` (racemic) [deutetrabenazine, (RR,SS)-1,3,4,6,7,11b-hexahydro-9,10-di(methoxy-d3)-3-(2-methylpropyl)-2H-benzo[a]quinolizin-2-one]: in data set [1] (6-48 mg/day oral, versus placebo), the “overall safety and efficacy of treatment” value is “safe and effective”. In addition, the PGI-I response result in data set [1] (Much Improved or Somewhat Improved in the PGI-I score) was “demonstrate a PGI-I response”. Moreover, the CGI-I response entry in data set [1] (Much Improved or Very Much Improved in the CGI-I score) is given as “demonstrate a CGI-I response”. Further, the CaGI-I response entry in data set [1] (Much Improved or Very Much Improved in the CaGI-I score) is listed as “demonstrate a CaGI-I response”. For the same compound, in data set [1] (activities of daily living, parent/caregiver completed), the PEDI-CAT result is recorded as “improvement”. Moreover, in data set [1] (in vivo), the UHDRS-TMC entry is “significant reductions”; the UHDRS-TMD entry is “significant reductions”; the UHDRS-TMS result is reported as “significant reductions”; the “safety by C-SSRS, ESRS, CBCL, ESS and lack of serious adverse events” value is reported as “safe”. For the same compound, the “CP module of the PedsQL” value in data set [1] (quality of life, patient/caregiver) is given as “significant reductions”. Besides, the CGI-S response entry in data set [1] (reduction of >1 point in the CGI-S score) is “demonstrate a CGI-S response”. Moreover, in data set [1] (setting [6]), the “reduction in the CGI-I score” value is on record as 0.5-0.7 points, the “reduction in the CaGI-I score” value is listed as 0.5-0.7 points, the “reduction in the MD-CRS part I total score” value is listed as 2-4 points and the “reduction in the MD-CRS part II total score” value is listed as 0.5-4 points. The “all primary and secondary endpoints” value in data set [1] (versus placebo, week 15) is reported as “significant improvements”. The safety profile result in data set [2] is on record as “favorable safety profile”. Besides, in data set [2] (6 mg to 48 mg), the “dystonic abnormal involuntary movements associated with dyskinesia in cerebral palsy” value is listed as “reduce dystonic abnormal involuntary movements”. The “half-life of its active metabolites” value in data set [3] was “increased half-life”. For the same compound, the safety profile entry in data set [4] (in vivo) was “favorable safety profile”. Besides, in data set [4] (long term administration of tolerable amounts), the “abnormal involuntary movements associated with dyskinesia in cerebral palsy” value is on record as “reduce abnormal involuntary movements”. For the same compound, the safety profile entry in data set [5] is reported as “favorable safety profile”. For the same compound, the “abnormal involuntary movements associated with dyskinesia in cerebral palsy” value in data set [5] (6 mg to 48 mg) is “reduce abnormal involuntary movements”.

Regarding `Nc1ccncc1` [Dalfampridine], the functional improvement entry in the data set on patients with CP was “failed to demonstrate functional improvement”.
